Laboratory results as given in publication PMC6934184, “Selective DNA-PKcs inhibition extends the therapeutic index of localized radiotherapy and chemotherapy” (The Journal of Clinical Investigation, 2019).
“And” between values parts separate entries of the source, which are not always exact repeats. Equal values may be shown once. Blank lines part the entries; values can stand above or below the molecule they belong to.

How the values were obtained:
[1] = test system: MCF7 cells; assay: clonogenic survival with 2 Gy IR, DNA repair inhibitors; assay type: cell-based, Human; conditions: 1 h before and 24 h after IR
Method: Cells were washed in phosphate-buffered saline (PBS), trypsinized and counted. Cells were then reseeded at a known density in drug-free medium into 10 cm dishes (100 - 10 000 cells/dish) and incubated for 8-21 days. Colonies were fixed using Carnoys fixture (75% v/v methanol, 25% v/v acetic acid, Fisher), stained with crystal violet (0.4% w/v in water), and counted using a ColCount automated colony counter (Oxford Optronics). Cell survival was calculated as a percentage of the untreated control.
Alternatively, exponentially growing MCF7 cells were exposed to a range of concentrations of the PARP inhibitor rucaparib, the ATM inhibitor KU55933, the ATR inhibitor VE-821 or NU5455 for 1 hour prior to irradiation with 2 Gy. Cells were then incubated in the continued presence of the DNA repair inhibitors for a further 24 hours prior to replating. […]

[2] = test system: NHEJ-mediated DSB repair in HEK293T cells; assay: NHEJ plasmid repair assay; assay type: cell-based, Human; conditions: 10 µM; 24 hours; AfeI or ScaI linearized plasmid
Method: The ability of NU5455 to impair the nonhomologous end joining (NHEJ) ability of cells was assessed using a modified version of a DNA repair assay developed by Nagel et al. ([52]), which measures the repair of a plasmid encoding blue fluorescent protein (BFP) and GFP linearized by either an ScaI or an AfeI restriction digestion. Full experimental details are given in Supplemental Methods.
(§1) Membranes were then washed in TBST and incubated with HRP-conjugated goat anti-mouse or anti-rabbit antibodies (P0447 and P0448 respectively, Dako) in 5% (w/v) milk/TBST at room temperature for 1-2 hours. Conjugates were detected using Clarity Western ECL Substrate (BioRad) and chemiluminescence imaged using the Fuji LAS-3000 Luminescent Image Analyzer System (Fujifilm).
Densitometry analysis was performed using AIDA Image Analyzer software (Raytest). The intensity of all bands was determined following a background subtraction, and the level of pDNA-PKcs stimulation determined by subtracting basal unstimulated pDNA-PKcs Ser2056 levels. pDNA-PKcs Ser2056 band intensity was calculated relative to total DNA-PKcs band intensity, and is given as percentage expression relative to irradiated, DMSO-treated cells. […]
violet laser with 440/50 emission filter to detect blue fluorescence using the VL1 channel. […]
Data were analyzed by FCS Express 6 Flow Research Edition (De Novo Software). […]

[3] = test system: A549; assay: growth inhibition, 72 hour incubation; assay type: cell-based, Human; conditions: read-out: Nutlin-3a GI50, individual determinations
Method: (§2) Supplemental Table 3. TP53 status of cell lines used.
(§3) incubation with the compound (see Supplemental Methods). GI50 values shown represent either individual determinations or the
(§4) References: (1) Melnikova VO et al., Oncogene, […]

[4] = test system: Calu6; assay: growth inhibition, 72 hour incubation; assay type: cell-based, Human; conditions: read-out: Nutlin-3a GI50, individual determinations
Method: as §2, §3, §4

[5] = test system: HCT116; assay: growth inhibition, 72 hour incubation; assay type: cell-based, Human; conditions: read-out: Nutlin-3a GI50, mean with standard deviation
Method: as §2, §3, §4

[6] = test system: Hep3B; assay: growth inhibition, 72 hour incubation; assay type: cell-based, Human; conditions: read-out: Nutlin-3a GI50, individual determinations
Method: as §2, §3, §4

[7] = test system: Huh7; assay: growth inhibition, 72 hour incubation; assay type: cell-based, Human; conditions: read-out: Nutlin-3a GI50, individual determinations
Method: as §2, §3, §4

[8] = test system: MCF10a; assay: growth inhibition, 72 hour incubation; assay type: cell-based, Human; conditions: read-out: Nutlin-3a GI50, mean with standard deviation
Method: as §2, §3, §4

[9] = test system: NHDF; assay: growth inhibition, 72 hour incubation; assay type: cell-based, Human; conditions: read-out: Nutlin-3a GI50, individual determination
Method: as §2, §3, §4

[10] = test system: SN40R2; assay: growth inhibition, 72 hour incubation; assay type: cell-based, Human; conditions: read-out: Nutlin-3a GI50, individual determination
Method: as §2, §3, §4

[11] = test system: HepG2; assay: growth inhibition, 72 hour incubation; assay type: cell-based, Human; conditions: read-out: Nutlin-3a GI50, mean with standard deviation
Method: HepG2 Human WT 1.0 ± 0.18 COSMIC […]
as §2, §3, §4

[12] = test system: MCF7; assay: growth inhibition, 72 hour incubation; assay type: cell-based, Human; conditions: read-out: Nutlin-3a GI50, mean with standard deviation
Method: MCF7 Human WT 2.3 ± 0.20 COSMIC […]
as §2, §3, §4

[13] = test system: 4T1; assay: growth inhibition, 72 hour incubation; assay type: cell-based, Mouse; conditions: read-out: Nutlin-3a GI50, individual determinations
Method: as §2, §3, §4

[14] = test system: B16F10; assay: growth inhibition, 72 hour incubation; assay type: cell-based, Mouse; conditions: read-out: Nutlin-3a GI50, mean with standard deviation
Method: as §2, §3, §4

[15] = test system: M2-10B4; assay: growth inhibition, 72 hour incubation; assay type: cell-based, Mouse; conditions: read-out: Nutlin-3a GI50, mean with standard deviation
Method: as §2, §3, §4

[16] = test system: NIH3T3; assay: growth inhibition, 72 hour incubation; assay type: cell-based, Mouse; conditions: read-out: Nutlin-3a GI50, mean with standard deviation
Method: as §2, §3, §4

[17] = test system: SJSA-1; assay: growth inhibition, 72 hour incubation; assay type: cell-based, Human; conditions: read-out: Nutlin-3a GI50, mean with standard deviation
Method: SJSA-1 Human WT 1.9 ± 0.19 COSMIC […]
as §2, §3, §4

[18] = test system: SJSA-1 tumor xenografts; assay: subcutaneous SJSA-1 xenograft with parenteral etoposide; assay type: in vivo, CD-1 nude mice; conditions: etoposide 5 mg/kg i.p., 5 consecutive days
Method: Combining systemic administration of etoposide + NU5455 in vivo
SJSA1 cells (1 x 10^7 cells/mouse in 50 µl, 50% v/v Matrigel) were implanted s.c. into the right flank of female CD-1 nude mice. When tumor volumes reached 103-121 mm3 mice were treated daily, for five consecutive days, with NU5455 (30 mg/kg or 100 mg/kg once -daily p.o. in NMP:Encapsin (30% aq):PEG4000 (1:6:3 v/v/v) ) or vehicle, followed immediately with etoposide (5 mg/kg i.p. in saline). Body weight and tumor volume measurements were taken daily during treatment and three times per week post -treatment. Tumor volume was calculated from two-dimensional electronic caliper measurements (Mitutoyo) using the equation ‘width2 x length/2’, where width was the smaller side, and length the longer dimension of the tumor. Mice were humanely killed when; (i) an adverse effect on clinical condition was evident, (ii) tumor bilateral measurements reached 10 mm x 10 mm, (iii) a tumor measurement in any di mension reached 15 mm, or (iv) at study termination. […]

[19] = test system: PI3K; assay: IGF-1-stimulated phospho-AKT Ser473 in MCF7 cells, Western blot; assay type: cell-based, Human; conditions: 1 μM, 50 ng/mL IGF-1, 30 min
Method: (§5) Exponentially growing MCF7 cells were exposed to a range of concentrations of NU5455 and NU7441 (0.03–10 μM) for 1 hour. To assess the ability of NU5455 and NU7441 to inhibit autophosphorylation of DNA-PKcs at Ser2056, cells were treated with 10 Gy irradiation and incubated for 30 minutes. Alternatively, to investigate the effects of NU5455 and NU7441 against PI3K-dependent phosphorylation of AKT at Ser473, cells were treated with 50 ng/mL insulin-like growth factor-1 (IGF-1; Invitrogen) for 30 minutes. Cell lysates were prepared for the detection of p–DNA-PKcs Ser2056 and total DNA-PKcs, or p–AKT Ser473 and total AKT, respectively, using Western blotting. […]
(§6) Protein lysates were quantified using the Pierce BCA Protein Assay (ThermoFisher). […]
as §1, with “(Fujifilm). […]” for “(Fujifilm).”
(§7) Alternatively, basal pAKT Ser473 levels were subtracted from all other pAKT bands, and pAKT band intensity calculated relative to total AKT expression and given as a percentage relative to IGF-1 stimulated, DMSO-treated cells. […]

[20] = target: DNA-PK (Homo sapiens, UniProt P78527); assay: radiation-induced phospho-DNA-PK Ser2056 in MCF7 cells, Western blot; assay type: cell-based; parameters: endogenous in cells; host or cells: MCF7; conditions: 1 h pretreatment, 30 min after 10 Gy IR, read-out: IC50, radiation-induced activation of DNA-PK (phospho–DNA-PK Ser2056)
Method: as §5, §6
as §1, with “(Fujifilm). […]” for “(Fujifilm).”
as §7

Structure (SMILES): CNCc1ccc(-c2[nH]c3cc(F)cc4c3c2CCNC4=O)cc1 [rucaparib]
SER (sensitization enhancement ratio), enhancement of 2 Gy IR clonogenic cell killing ([1]; at 1 μM): 1.4 fold

Structure (SMILES): O=c1cc(-c2cccc3c2Sc2ccccc2S3)oc(N2CCOCC2)c1 [KU55933, reference compound]
repair of DNA-DSBs (NHEJ plasmid repair) [2]: NU5455 but not the ATM inhibitor KU55933 inhibits NHEJ-mediated DSB repair
SER (sensitization enhancement ratio), enhancement of 2 Gy IR clonogenic cell killing ([1]; at 10 μM): 2.3 fold

GI50 [3]: 2400 nM and 2900 nM
GI50 [4]: > 30 µM
GI50 [5]: 2100 ± 710 nM
GI50 [6]: > 30 µM
GI50 [7]: > 10 µM and 27 µM
GI50 [11]: 1000 ± 180 nM
GI50 [12]: 2300 ± 200 nM
GI50 [13]: > 30 µM
GI50 [14]: 5.7 ± 1.8 µM
GI50 [17]: 1900 ± 190 nM
Structure (SMILES): COc1ccc(C2=N[C@@H](c3ccc(Cl)cc3)[C@@H](c3ccc(Cl)cc3)N2C(=O)N2CCNC(=O)C2)c(OC(C)C)c1 [Nutlin-3a]
GI50 [8]: 5.1 ± 2.8 µM
GI50 [9]: 2700 nM
GI50 [10]: > 30 µM
GI50 [15]: 3.3 ± 0.64 µM
GI50 [16]: 4 ± 1.1 µM

Structure (SMILES): CS(=O)(=O)c1ccc(-c2cnc(N)c(C(=O)Nc3ccccc3)n2)cc1 [VE-821]
SER (sensitization enhancement ratio), enhancement of 2 Gy IR clonogenic cell killing ([1]; at 1 μM): 1.6 fold

Structure (SMILES): COc1cc([C@@H]2c3cc4c(cc3[C@@H](O[C@@H]3O[C@@H]5CO[C@@H](C)O[C@H]5[C@H](O)[C@H]3O)[C@H]3COC(=O)[C@H]23)OCO4)cc(OC)c1O [Etoposide, etoposide, reference compound]
antitumor effect, monotherapy [18]: relatively marginal antitumor effect

IC50 [20]: 405 nM
Structure (SMILES): O=c1cc(N2CCOCC2)oc2c(-c3cccc4c3sc3ccccc34)cccc12 [NU7441, reference compound]
inhibition of IGF/PI3K-stimulated signaling response (phospho–AKT Ser473) [19]: 40% ± 7%
